Columns and labels:
[1] = biological target: T1, Neuraminidase (Influenza A virus, UniProt B4URF0); experiment: Inhibition of Influenza A virus (A/Indonesia/5/2005(H5N1)) […] recombinant neuraminidase using 2'-(4-methylumbelliferyl)-alpha-D-N-acetylneuraminic acid as substrate after 1 hr by fluorescence assay
[2] = biological target: T1, Neuraminidase; experiment: Inhibition of Influenza A virus (A/Sydney/5/97(H3N2)) recombinant neuraminidase using 2'-(4- methylumbelliferyl)-alpha-D-N-acetylneuraminic acid as substrate after 1 hr by fluorescence assay; set-up: species or system Influenza A virus (A/Sydney/5/1997(H3N2))
[3] = system: Influenza A virus; experiment: Antiviral activity against Influenza A virus (A/Indonesia/5/2005(H5N1)) […] infected in MDCK cells assessed as protective rate against virus-induced cytopathic effect at 5 uM after 2 days by neutral red uptake assay; type: functional
[4] = in vivo; conditions: Sprague-Dawley, rat, plasma, po, 10 mg/kg
[5] = in vivo; conditions: Sprague-Dawley, rat, plasma, iv, 10 mg/kg
[6] = in vivo; conditions: Sprague-Dawley, rat, po, 10 mg/kg
[7] = in vivo; conditions: Sprague-Dawley, rat, po, 10 mg/kg; remark: listed apart in the source
[8] = system: Influenza A virus; experiment: Antiviral activity against Influenza A virus (A/Indonesia/5/2005(H5N1)) […] infected in MDCK cells assessed as protective rate against virus-induced cytopathic effect at 4 uM after 2 days by neutral red uptake assay; type: functional
[9] = Volume of distribution in Sprague-Dawley rat at 2 mg/kg, iv; type: ADME, organism-based; set-up: dose 2 mg/kg, route intravenous; conditions: in vivo
[10] = Clearance in Sprague-Dawley rat at 2 mg/kg, iv; type: ADME, organism-based; set-up: dose 2 mg/kg, route intravenous; conditions: in vivo
[11] = in vivo; conditions: Sprague-Dawley, rat, iv, 2 mg/kg

T1 sequence (B4URF0 whole entry): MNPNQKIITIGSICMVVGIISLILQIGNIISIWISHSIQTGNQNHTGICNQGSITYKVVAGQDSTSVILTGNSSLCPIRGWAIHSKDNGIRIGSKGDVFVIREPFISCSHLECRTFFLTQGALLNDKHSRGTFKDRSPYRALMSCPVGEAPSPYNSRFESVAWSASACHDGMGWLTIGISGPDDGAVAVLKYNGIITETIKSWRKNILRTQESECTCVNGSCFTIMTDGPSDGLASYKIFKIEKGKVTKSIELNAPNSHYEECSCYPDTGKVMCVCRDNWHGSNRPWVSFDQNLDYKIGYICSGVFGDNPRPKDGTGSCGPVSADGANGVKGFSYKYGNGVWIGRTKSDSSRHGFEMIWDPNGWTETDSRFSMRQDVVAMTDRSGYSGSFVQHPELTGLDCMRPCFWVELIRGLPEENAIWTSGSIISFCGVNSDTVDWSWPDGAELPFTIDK

Structure (SMILES) | IC50 [2] [µM] | IC50 [1] [µM] | Activity [3] [%] | Activity [8] [%] | other results
CC(=O)N[C@H]1[C@H]([C@H](O)[C@H](O)CO)OC(C(=O)O)=C(C/C=C/c2ccc(C)cc2)[C@@H]1O |  |  |  |  | Ki [1]: 7.3 µM
CC(=O)N[C@H]1[C@H]([C@H](O)[C@H](O)CO)OC(C(=O)O)=C[C@@H]1NC(=O)N[C@H](CC(N)=O)C(=O)O | 22.3 | 77.3 |  |  | 
CC(=O)N[C@H]1[C@H]([C@H](O)[C@H](O)CO)OC(C(=O)O)=C[C@@H]1NC(=O)Nc1ccc(C)cc1 | 777 | 933 | 0 |  | 
CC(=O)N[C@H]1[C@H]([C@H](O)[C@H](O)CO)OC(C(=O)O)=C[C@@H]1NC(=O)Nc1ccc(Cl)cc1 | > 1000 | > 1000 | 0 |  | 
CC(=O)N[C@H]1[C@H]([C@H](O)[C@H](O)CO)OC(C(=O)O)=C[C@@H]1NC(=O)Nc1ccc(F)cc1 | > 1000 | > 1000 | 0 |  | 
COc1ccc(NC(=O)N[C@H]2C=C(C(=O)O)O[C@@H]([C@H](O)[C@H](O)CO)[C@@H]2NC(C)=O)cc1 | 848 | 910 | 6.9 |  | 
CC(=O)N[C@H]1[C@H]([C@H](O)[C@H](O)CO)OC(C(=O)O)=C[C@@H]1NC(=O)NCc1ccco1 | 6.6 | 38.4 | 58 |  | AUC(0-t) [4]: 381 ng·h/mL; AUC(0-t) [5]: 14000 ng·h/mL; bioavailability [6]: 2.73%; half-life [7]: 340 min
CC(=O)N[C@H]1[C@H]([C@H](O)[C@H](O)CO)OC(C(=O)O)=C[C@@H]1NC(=O)NCc1ccccc1 | 705 | > 1000 |  |  | 
CC(=O)N[C@H]1[C@H]([C@H](O)[C@H](O)CO)OC(C(=O)O)=C[C@@H]1NC(=S)Nc1ccccc1 | > 1000 | > 1000 | 13.6 |  | 
CC(=O)N[C@H]1[C@H]([C@H](O)[C@H](O)CO)OC(C(=O)O)=C[C@@H]1NC(=S)Nc1ccc(C(F)(F)F)cc1 | 894 | > 1000 | 34.4 |  | 
CC(=O)N[C@H]1[C@H]([C@H](O)[C@H](O)CO)OC(C(=O)O)=C[C@@H]1NC(=S)Nc1cccc(C(F)(F)F)c1 | > 1000 | > 1000 | 0 |  | 
COc1cccc(NC(=S)N[C@H]2C=C(C(=O)O)O[C@@H]([C@H](O)[C@H](O)CO)[C@@H]2NC(C)=O)c1 | > 1000 | > 1000 | 0 |  | 
CC(=O)N[C@H]1[C@H]([C@H](O)[C@H](O)CO)OC(C(=O)O)=C[C@@H]1NC(=S)Nc1ccccc1F | 57.1 | 396 | 14.8 |  | 
COc1ccccc1NC(=S)N[C@H]1C=C(C(=O)O)O[C@@H]([C@H](O)[C@H](O)CO)[C@@H]1NC(C)=O | 89.6 | 578 | 11.7 |  | 
CC(=O)N[C@H]1[C@H]([C@H](O)[C@H](O)CO)OC(C(=O)O)=C[C@@H]1NC(=S)Nc1ccccc1Br | > 1000 | > 1000 | 2.9 |  | 
CC(=O)N[C@H]1[C@H]([C@H](O)[C@H](O)CO)OC(C(=O)O)=C[C@@H]1NC(=S)Nc1cccc2ccccc12 | 674 | 901 | 0 |  | 
CCNC(=S)N[C@H]1C=C(C(=O)O)O[C@@H]([C@H](O)[C@H](O)CO)[C@@H]1NC(C)=O | 612 | 298 |  | 27.8 | 
CC(=O)N[C@H]1[C@H]([C@H](O)[C@H](O)CO)OC(C(=O)O)=C[C@@H]1NC(=S)NCCCl | 100 | 67.2 |  | 20.3 | 
CCCCNC(=S)N[C@H]1C=C(C(=O)O)O[C@@H]([C@H](O)[C@H](O)CO)[C@@H]1NC(C)=O | 64.5 | 21.4 |  | 32.6 | 

Structure (SMILES) | IC50 [2] [µM] | IC50 [1] [µM] | Activity [3] [%] | Activity [8] [%] | other results
CC(=O)N[C@H]1[C@H]([C@H](O)[C@H](O)CO)OC(C(=O)O)=C[C@@H]1NC(=S)NC1CC1 | 550 | 295 |  | 11.3 | 
CC(=O)N[C@H]1[C@H]([C@H](O)[C@H](O)CO)OC(C(=O)O)=C[C@@H]1NC(=O)NCC(=O)O | 530 | 113 |  | 6.2 | 
CC(=O)N[C@H]1[C@H]([C@H](O)[C@H](O)CO)OC(C(=O)O)=C[C@@H]1NC(=O)N[C@@H](C)C(=O)O | 663 | 690 |  | 0 | 
CC(=O)N[C@H]1[C@H]([C@H](O)[C@H](O)CO)OC(C(=O)O)=C[C@@H]1NC(=O)N[C@H](C(=O)O)C(C)C | 54.4 | 917 |  | 0 | 
CSCC[C@H](NC(=O)N[C@H]1C=C(C(=O)O)O[C@@H]([C@H](O)[C@H](O)CO)[C@@H]1NC(C)=O)C(=O)O | 413 | 406 |  | 0 | 
CC(=O)N[C@H]1[C@H]([C@H](O)[C@H](O)CO)OC(C(=O)O)=C[C@@H]1NC(=O)N[C@@H](Cc1ccccc1)C(=O)O | 629 | > 1000 |  | 0 | 
CC(=O)N[C@H]1[C@H]([C@H](O)[C@H](O)CO)OC(C(=O)O)=C[C@@H]1NC(=O)N1CCC[C@H]1C(=O)O | 574 | > 1000 |  | 0 | 
CC(=O)N[C@H]1[C@H]([C@H](O)[C@H](O)CO)OC(C(=O)O)=C[C@@H]1NC(=O)N[C@H](C(=O)O)[C@@H](C)O | 488 | 392 |  | 0 | 
CC(=O)N[C@H]1[C@H]([C@H](O)[C@H](O)CO)OC(C(=O)O)=C[C@@H]1NC(=O)N[C@@H](CC(N)=O)C(=O)O | 0.58 | 2.72 |  | 8.7 | 
CC(=O)N[C@H]1[C@H]([C@H](O)[C@H](O)CO)OC(C(=O)O)=C[C@@H]1NC(=O)N[C@@H](CCC(N)=O)C(=O)O | 58.1 | 103 |  |  | 
CC(=O)N[C@H]1[C@H]([C@H](O)[C@H](O)CO)OC(C(=O)O)=C[C@@H]1NC(=O)NCC(=O)NCC(=O)O | 68.5 | 70.4 |  | 37.1 | 
CC(=O)N[C@H]1[C@H]([C@H](O)[C@H](O)CO)OC(C(=O)O)=C[C@@H]1NC(=O)N[C@@H](C)C(=O)NCC(=O)O | 101 | 126 |  |  | 
CC(=O)N[C@H]1[C@H]([C@H](O)[C@H](O)CO)OC(C(=O)O)=C[C@@H]1N1CCOCC1 | 567 | 517 |  | 26.8 | 
CC(=O)N[C@H]1[C@H]([C@H](O)[C@H](O)CO)OC(C(=O)O)=C[C@@H]1N1CCCC(C(=O)O)C1 (some centres undefined) | 496 | 532 |  |  | 
CC(=O)N[C@H]1[C@H]([C@H](O)[C@H](O)CO)OC(C(=O)O)=C[C@@H]1N1CCC2(CC1)OCCO2 | 511 | 738 |  | 0 | 
CC(=O)N[C@H]1[C@H]([C@H](O)[C@H](O)CO)OC(C(=O)O)=C[C@@H]1N1CCN(c2ccccc2)CC1 | 836 | 761 |  |  | 
CC(=O)N[C@H]1[C@H]([C@H](O)[C@H](O)CO)OC(C(=O)O)=C[C@@H]1N1CCN(c2cccc(C(F)(F)F)c2)CC1 | 271 | 122 |  |  | 
CC(=O)N[C@H]1[C@H]([C@H](O)[C@H](O)CO)OC(C(=O)O)=C[C@@H]1NC(=N)N [ZANAMIVIR] |  |  | 67.2 |  | Vd [9]: 0.03 L/kg; clearance [10]: 1.42 mL/min/kg; bioavailability [6]: 2.7%; half-life [7]: 15 min; half-life [11]: 24 min
